The source of these data is PubChem BioAssay (NCI).

“And” between values parts separate entries of the source, which are not always exact repeats. Equal values may be shown once.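 96-well plates; 48 h exposure; 5 concentrations. Endpoints by linear interpolation between flanking doses. Not reached: highest tested concentration assigned. GI50: concentration for 50% inhibition of growth. TGI: total growth inhibition.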

Holding throughout (experiment): NCI tumour cell line growth inhibition, 48 h
Experiment [1] concerns HCC-2998 colon.
For experiment [2], the system named is COLO 205 colon.
Experiment [3] deals with RPMI-8226 leukemia.
In experiment [4] the test system is NCI-H23 lung.
For experiment [5], the system named is NCI-H226 lung.
The subject of experiment [6] is SR leukemia.
In experiment [7] the test system is TK-10 renal.
For experiment [8], the system named is SK-OV-3 ovarian.
Experiment [9] concerns IGROV1 ovarian.
Experiment [10] relates to NCI-H460 lung.

As to `COc1c(C)c(OC)c(C(=O)CC(C)C)c(OC)c1C`, the TGI in experiment [1] was > 100 µM; in experiment [2] it was > 100 µM; in experiment [3], 73.1 µM; in experiment [4] it was > 100 µM; in [5], > 100 µM; in experiment [6], > 100 µM. For the same compound, the TGI in [7], in experiment [8] and in experiment [9] was > 100 µM each time.
For the compound `Cc1nc2ccccc2c(/C=C/c2ccccc2)c1C(=O)/C=C/c1ccc(C(F)(F)F)cc1`, the GI50 in [1] is 1.4 µM; in experiment [2], 2.13 µM; in experiment [3], 0.394 µM; in experiment [4], 1.25 µM; in experiment [5], 1.73 µM; in [6], 0.38 µM. Moreover, the GI50 is 2.35 µM in experiment [7] and 0.414 µM in experiment [9]. Besides, the TGI is 2.9 µM in experiment [1]; 5.4 µM in [2]; 3.85 µM in experiment [3]; 3.11 µM in [4]; 3.67 µM in experiment [5]; > 100 µM in [6]. Further, the values for the TGI in experiment [7] and in experiment [9] were 4.04 µM and 2.02 µM, respectively.
With `CN=C1CN=C(OP(=O)(N2CCOCC2)N2CCOCC2)c2cc(Cl)ccc2N1`, the TGI in experiment [1], in experiment [3], in experiment [4], in [5], in experiment [6] and in experiment [7] was > 100 µM throughout. The TGI in experiment [10] is > 100 µM.
Regarding `COc1cc(/C=C2\NC(=O)C3Cc4c(OC)c(C)c(OC)c(OC)c4C2N3C)c(OC)c(C)c1OC` (stereo not given), the TGI in experiment [1], in experiment [2], in [4], in [5], in [6] and in [7] was > 100 µM throughout. Besides, the TGI in experiment [8] and in [9] was > 100 µM throughout.
Regarding `CN(/N=C/c1ccccc1O)c1ccc2ccccc2n1`, the TGI in experiment [2] is > 100 µM; in experiment [3] it was > 100 µM; in experiment [4], 58.4 µM; in experiment [5], > 100 µM; in experiment [6], 36.8 µM; in experiment [7] it was 44 µM. In addition, the TGI in experiment [8] came out at 29.8 µM; in [9] it was 42.5 µM; in [10], 55 µM.
Regarding `C/C(CC(C)(C)N1CC1)=N\NC(=O)Nc1cccc2ccccc12`, the GI50 was 4.81 µM in experiment [1]; 2.39 µM in experiment [2]; 2.71 µM in experiment [3]; 3.78 µM in experiment [4]; 3.51 µM in [5]; 2.02 µM in experiment [6]. Further, the GI50 in [7] was 2.81 µM; in experiment [9] it was 4.19 µM; in [10], 2.86 µM. Besides, the TGI in experiment [1] is 17 µM; in experiment [2], 7.19 µM; in experiment [3] it was 8.74 µM; in experiment [4], 21.3 µM; in experiment [5], 14.9 µM; in experiment [6], 6.13 µM. For the same compound, the TGI was 7.23 µM in [7], 36.9 µM in experiment [9] and 10 µM in experiment [10].
Consider `O=S(=O)(O)n1ccnc1` (tested in a mixture with another compound), for which the TGI in experiment [2], in [3], in experiment [4], in experiment [5], in experiment [6] and in experiment [7] was > 100 µM each time. Besides, the TGI in experiment [8], in experiment [9] and in experiment [10] was > 100 µM in each case.
`CCCCC(OC(=O)c1ccc(N)cc1)C(=O)Nc1nc(CC(=O)OCC)cs1` (stereo not given): the GI50 in experiment [1] was 67.5 µM; in experiment [2], 31.6 µM; in experiment [3] it was 26.7 µM; in experiment [5], 43.5 µM; in experiment [6], 42.8 µM; in experiment [7], 40 µM. The GI50 is 29.1 µM in experiment [8] and 51 µM in experiment [9]. The TGI in [1], in [2], in experiment [3], in experiment [5], in experiment [6] and in experiment [7] was > 100 µM in each case. The TGI in experiment [8] and in [9] was > 100 µM in each case.
For `CCOC(=O)c1c(-c2ccc(OC)c(O)c2)c(C#N)c(=S)n(C2OC(COC(C)=O)C(OC(C)=O)C(OC(C)=O)C2OC(C)=O)c1-c1ccccc1` (stereo not given), the GI50 is 31.8 µM and > 100 µM in [1]; 27.9 µM and > 100 µM in experiment [2]; 36.5 µM and 6.1 µM in experiment [3]; 22.2 µM and > 100 µM in [4]; 23.6 µM and > 100 µM in experiment [9]. Besides, the TGI in experiment [1] was > 100 µM; in [2], > 100 µM; in [3], 81.5 µM and > 100 µM; in experiment [4], 60.3 µM and > 100 µM; in experiment [5] it was > 100 µM; in experiment [6], > 100 µM. Moreover, the TGI in experiment [9] is 47.7 µM and > 100 µM; in [10] it was > 100 µM.
Take `C=CCOc1ccc(N)c([N+](=O)[O-])c1`: the TGI in experiment [1], in [2], in [3], in [4], in [5] and in experiment [6] was > 100 µM in each case. Moreover, the TGI in experiment [7], in experiment [8] and in experiment [9] was > 100 µM each time.
Take `COc1ccc(-c2oc3c(OC)c(OC)c(OC)c(O)c3c(=O)c2OC)cc1O`: the TGI in experiment [1] was 8.64 µM; in experiment [2] it was 23.5 µM; in experiment [6], 0.112 µM; in [7], 51 µM; in [8], 0.783 µM and 0.419 µM; in experiment [9] it was 52.1 µM. In experiment [10], this compound came in with a TGI of 0.138 µM. Besides, the GI50 is < 0.01 µM in experiment [4]; < 0.01 µM in [6]; < 0.01 µM in experiment [8]; 0.0358 µM in experiment [9]; < 0.01 µM in [10].
As to `O=[N+]([O-])c1cc(I)cc(/C=N/NS(=O)(=O)c2ccc(Cl)cc2)c1O`, the TGI in experiment [1] amounted to 46.3 µM; in experiment [2], 33.1 µM; in experiment [3], 59.7 µM; in experiment [4], 34.2 µM; in experiment [6] it was 46.2 µM; in [7], 74.4 µM. The values for the TGI in experiment [8], in experiment [9] and in [10] were 65 µM, 45.1 µM and 37.4 µM, respectively.
